pIC50: −log10 of the molar value.
Assays:
Human thrombin = biological target: T1, Human thrombin (Homo sapiens, UniProt P00734); assay: Thrombin protease inhibition assay, chromogenic substrate S-2238; type: biochemical; conditions: inhibition of the protease activity of thrombin, Table A
T1 construct: purchased Haematologic Technologies Inc
Procedure: Compounds described herein can be assayed, by a variety of methods known in the art and described herein, for inhibition of biological activity, e.g., protease activity, of a variety of proteins, e.g., thrombin.
The thrombin activity reported herein (e.g., Table A) was obtained as follows. […] Thrombin was assayed in buffer containing 0.05 M Tris (pH 7.4), 0.015 M NaCl and 0.01% PEG-8000. The final concentration of enzyme used was 3 nM thrombin. […] All assays were performed in 96-well microtiter plates at room temperature (RT). […] Inhibitor IC50 values were determined by adding test compound as ten point, three-fold serial dilutions in buffer solution, as known in the art. The plate was read at 10 minutes after substrate addition. The IC50 was calculated by plotting the percent (%) inhibition against compound concentration and fitting the data to a constrained four parameter sigmoidal curve, as known in the art.

malignant breast tumors = conditions: cited from earlier work

With `CN(C)C(=O)c1n[nH]c(C(=O)Nc2ccccc2Cl)n1` [Cmpd 186, 5-C-(2-chlorobenzene)-3-N,3-N-dimethyl-1H-1,2,4-triazole-3,5-dicarboxamide] as the compound, how does the pIC50 (Human thrombin) read?
The pIC50 was under 6.00.

For `Fc1ccc(CNc2nc(-c3cccnc3)n[nH]2)cc1` [Cmpd 4], which melting point is on record?
The melting point was 185 to 186 °C.

With `CNC(=O)c1n[nH]c(C(=O)Nc2ccccc2Cl)n1` [Cmpd 187, 5-C-(2-chlorobenzene)-3-N-methyl-1H-1,2,4-triazole-3,5-dicarboxamide] as the compound, how does the pIC50 (Human thrombin) read?
The pIC50 was under 6.00.

Which “reduction in tumor volume” value (malignant breast tumors; at 4 weeks, treated mice) does the source give for `CCCCCCOC(=O)NC(=N)c1ccc(NCc2nc3cc(C(=O)N(CCC(=O)OCC)c4ccccn4)ccc3n2C)cc1` [dabigatran etexilate] here?
The value was 50%.

And the “weight loss in treated mice” value (malignant breast tumors; at 4 weeks)?
The value was “no weight loss”.

And the “reduction of tumor cells in the blood and liver micrometastases” value (malignant breast tumors; mouse, in vivo)?
The value was 50-60%.

From patent publication US10653674B2, “Multisubstituted aromatic compounds as inhibitors of thrombin” (VERSEON CORPORATION, priority 2010, dated 2020)
